Reference: US11793880B2, “Conjugates of quaternized tubulysin compounds” (Seagen Inc., priority 2015, dated 2023)

What was measured:
Karpas299, ALCL = assay: In vitro assays - tubulysin free drugs, CellTiter-Glo growth inhibition; assay type: cell-based; conditions: free drug
Description: (§1) In vitro assays. Cells cultured in log-phase growth were seeded for 24 h in 96-well plates containing 150 μL RPMI 1640 supplemented with 20% FBS. Serial dilutions of antibody-drug conjugates in cell culture media were prepared at 4× working concentrations; 50 μL of each dilution was added to the 96-well plates. Following addition of ADC, cells were incubated with test articles for 4 d at 37° C. After 96 h, growth inhibition was assessed by CellTiter-Glo® (Promega, Madison, WI) and luminescence was measured on a plate reader. The IC50 value, determined in triplicate, is defined here as the concentration that results in a 50% reduction in cell growth relative to untreated controls.
(§2) In vitro assays—tubulysin free drugs. Cells were treated for 96 hours with tubulysin ether analogs (40-42) or tubulysin M (7), then assessed for viability as described in the methods.
(§3) The tubulysin ester analogs (133-137) and unsaturated ether analogs (176-179) were tested in vitro for potency relative to tubulysin M (7), following a 96 hour exposure. As shown by IC50 values (nM) of Table 2, Tubulysin esters 133-136 performed comparably to tubulysin M, with similar potencies across of the cell lines.

L428, MDR + HL [1] = assay: as above; assay type: cell-based; conditions: free drug
Description: as §1, §2, §3

HL60, AML = assay: as above; assay type: cell-based
Description: as §1, §2, §3
(§4) A series of analogues of the ethyl ether tubulysin compound TubOEt (41) were synthesized on solid phase lanterns that maintain the ethyl ether substitution, while either varying the residue at the Ile position (203-215) or the Mep position (216-221). Following cleavage from the solid phase, the analogues were obtained in >85% purity and tested without further purification. The compounds were tested in vitro for potency relative to a sample of TubOEt synthesized in parallel on a lantern (41-lantern), following a 96 hour exposure, with IC5O values expressed in nM (Table 3). While in many cases an attenuation in activity was observed relative to 41-lantern, some well-tolerated substitutions were found. […] While this stereochemical preference is not observed when Ile is replaced with O-methyl threonine (207) or O-methyl allothreonine (206), bulkier substituents led to a greater differentiation. […] Replacement of the Mep residue was generally less-well tolerated.

HL60/RV, MDR + AML = assay: as above; assay type: cell-based
Description: as §1, §2, §3, §4

L540cy, HL [2] = assay: as above; assay type: cell-based
Description: as §1, §2, §3, §4

DEL/BVR, MDR + ALCL = conditions: Table 4; cAC10 ADCs DAR 8, 96 h
Description: (§5) In vitro assays. Cells cultured in log-phase growth were seeded for 24 h in 96-well plates containing 150 μL RPMI 1640 supplemented with 20% FBS. Serial dilutions of antibody-drug conjugates in cell culture media were prepared at 4× working concentrations; 50 μL of each dilution was added to the 96-well plates. […] After 96 h, growth inhibition was assessed by CellTiter-Glo® (Promega, Madison, WI) and luminescence was measured on a plate reader.
(§6) In vitro assays—tubulysin ADCs. ADCs were prepared by t Ell reduction of interchain disulfides to reveal 8-conjugatable cysteines/antibody that were alkylated through Michael addition with the maleimide-containing Drug Linker compounds. […] conjugates hearing quaternized tubulysin ethers with and without a PEG12 side-chain were compared to their tubulysin M analogs.
(§7) Several hydrophilic linker constructs incorporating quaternized tubulysin M were prepared and evaluated in vitro; the results are shown in Table 5. The data (IC50 values in ng/mL) indicate that Conjugates prepared from Drug Linker compounds having quaternized tubulysin M linked via a hydrophilic ValGlu dipeptide with (95) or without (91) a PEG12 side chain, or linked via a hydrophilic glucuronide (82) provide ADCs that are equipotent to the ValAla comparator (15).

L428, MDR + HL [3] = conditions: Table 4; cAC10 ADCs DAR 8, 96 h
Description: as §5, §6, §7

L540cy, HL [4] = conditions: Table 4; cAC10 ADCs DAR 8, 96 h
Description: as §5, §6, §7

HepG2, HCC = assay: In vitro assays - TubOEt analogues, CellTiter-Glo growth inhibition; assay type: cell-based; conditions: Homo sapiens, Table 3, lantern-made analogues >85% purity, 96 hour exposure
Description: as §1, §4

Ramos, NHL = assay: as above; assay type: cell-based; conditions: Homo sapiens, Table 3, lantern-made analogues >85% purity, 96 hour exposure
Description: as §1, §4

U266 MM = assay: as above; assay type: cell-based; conditions: Homo sapiens, U-266; Table 3; lantern-made analogues >85% purity, 96 hour exposure
Description: as §1, §4

[5] = system: HepG2, L540cy, Ramos, U266, HL60, HL60/RV cell lines; assay: In vitro assays - TubOEt analogues, statements across the cell line panel; assay type: cell-based; conditions: Table 3 cell lines, 96 hour exposure
Description: as §1, §4

[6] = Table 1 (examples), free drug, 96 hours
[7] = Homo sapiens, KARPAS-299, 96 h, Table 2, 96 hour exposure
[8] = Homo sapiens, L-428, 96 h, Table 2, 96 hour exposure
[9] = Homo sapiens, HL-60, 96 h, Table 2, free drug, 96 hour exposure
[10] = L540cy, 96 h, Table 2, free drug, 96 hour exposure
[11] = Homo sapiens, HL-60, 96 h, Table 3, lantern-made analogues >85% purity, 96 hour exposure
[12] = L540cy, 96 h, Table 3, lantern-made analogues >85% purity, 96 hour exposure

`CCCO[C@H](C[C@H](C(C)C)N(C)C(=O)[C@@H](NC(=O)[C@H]1CCCCN1C)[C@@H](C)CC)c1nc(C(=O)N[C@@H](Cc2ccccc2)C[C@H](C)C(=O)O)cs1` [Compound 42, (2S,4R)-4-(2-((1R,3R)-3-((2S,3S)—N,3-dimethyl-2-((R)-1-methylpiperidine-2-carboxamido)pentanamido)-4-methyl-1-propoxypentyl)thiazole-4-carboxamido)-2-methyl-5-phenylpentanoic add] was tested, and the IC50 (Karpas299, ALCL; Table 1 (examples), 96 hours) was 0.15 nM, the IC50 (L428, MDR + HL [1]; Table 1 (examples), 96 hours) was 0.4 nM and the IC50 (HL60, AML; [6]) was 0.17 nM. It also gave an IC50 (HL60/RV, MDR + AML; [6]) of 14 nM and an IC50 (L540cy, HL [2]; [6]) of 0.13 nM.
For `CCCO[C@H](C[C@H](C(C)C)N(C)C(=O)[C@@H](NC(=O)[C@H]1CCCC[N+]1(C)Cc1ccc(O[C@@H]2O[C@H](C(=O)O)[C@@H](O)[C@H](O)[C@H]2O)c(NC(=O)CCNC(=O)[C@H](CN)N2C(=O)C=CC2=O)c1)[C@@H](C)CC)c1nc(C(=O)N[C@@H](Cc2ccccc2)C[C@H](C)C(=O)O)cs1` (some centres unmarked) [Compound 58], the “IC50, DEL/BVR, MDR + ALCL” value (DEL/BVR, MDR + ALCL) was 0.01 µg/mL, the “IC50, L428, MDR + HL” value (L428, MDR + HL [3]) was 0.117 µg/mL and the “IC50, L540cy, HL” value (L540cy, HL [4]) was 0.006 µg/mL.
Work on `CCC(=O)O[C@H](C[C@H](C(C)C)N(C)C(=O)[C@@H](NC(=O)[C@H]1CCCCN1C)[C@@H](C)CC)c1nc(C(=O)N[C@@H](Cc2ccccc2)C[C@H](C)C(=O)O)cs1` [Compound 133, (2S,4R)-4-(2-((1R,3R)-3-((2S,3S)—N,3-dimethyl-2-((R)-1-methylpiperidine-2-carboxamido)pentanamido)-4-methyl-1-(propionyloxy)pentyl)thiazole-4-carboxamido)-2-methyl-5-phenylpentanoic acid] yielded an IC50 (Karpas299, ALCL; [7]) of 0.02 nM, an IC50 (L428, MDR + HL [1]; [8]) of 0.04 nM and an IC50 (HL60, AML; [9]) of 0.1 nM. The IC50 (HL60/RV, MDR + AML; [9]) was 1 nM and the IC50 (L540cy, HL [2]; [10]) was 0.06 nM.
With `CCCC(=O)O[C@H](C[C@H](C(C)C)N(C)C(=O)[C@@H](NC(=O)[C@H]1CCCCN1C)[C@@H](C)CC)c1nc(C(=O)N[C@@H](Cc2ccccc2)C[C@H](C)C(=O)O)cs1` [Compound 134, (2S,4R)-4-(2-((1R,3R)-1-(butyryloxy)-3-((2S,3S)—N,3-dimethyl-2-((R)-1-methylpiperidine-2-carboxamido)pentanamido)-4-methylpentyl)thiazole-4-carboxamido)-2-methyl-5-phenylpentanoic acid] the IC50 (Karpas299, ALCL; [7]) was 0.011 nM, the IC50 (L428, MDR + HL [1]; [8]) was 0.05 nM and the IC50 (HL60, AML; [9]) was 0.08 nM. For the same compound, the IC50 (HL60/RV, MDR + AML; [9]) was 3 nM and the IC50 (L540cy, HL [2]; [10]) was 0.04 nM.
`CC[C@H](C)[C@H](NC(=O)[C@H]1CCCCN1C)C(=O)N(C)[C@H](C[C@@H](OC(=O)C(C)C)c1nc(C(=O)N[C@@H](Cc2ccccc2)C[C@H](C)C(=O)O)cs1)C(C)C` [Compound 135, (2S,4R)-4-(2-((1R,3R)-3-((2S,3S)—N,3-dimethyl-2-((R)-1-methylpiperidine-2-carboxamido)pentanamido)-1-(isobutyryloxy)-4-methylpentyl)thiazole-4-carboxamido)-2-methyl-5-phenylpentanoic acid] showed an IC50 (Karpas299, ALCL; [7]) of 0.02 nM, an IC50 (L428, MDR + HL [1]; [8]) of 0.12 nM and an IC50 (HL60, AML; [9]) of 0.1 nM. It also gave an IC50 (HL60/RV, MDR + AML; [9]) of 6 nM and an IC50 (L540cy, HL [2]; [10]) of 0.1 nM.
For `CC[C@H](C)[C@H](NC(=O)[C@H]1CCCCN1C)C(=O)N(C)[C@H](C[C@@H](OC(=O)CC(C)C)c1nc(C(=O)N[C@@H](Cc2ccccc2)C[C@H](C)C(=O)O)cs1)C(C)C` [Compound 136, (2S,4R)-4-(2-((1R,3R)-3-((2S,3S)—N,3-dimethyl-2-((R)-1-methylpiperidine-2-carboxamido)pentanamido)-4-methyl-1-((3-methylbutanoyl)oxy)pentyl)thiazole-4-carboxamido)-2-methyl-5-phenylpentanoic acid], the IC50 (Karpas299, ALCL; [7]) was 0.02 nM, the IC50 (L428, MDR + HL [1]; [8]) was 0.11 nM and the IC50 (HL60, AML; [9]) was 0.04 nM. For the same compound, the IC50 (HL60/RV, MDR + AML; [9]) was 6 nM and the IC50 (L540cy, HL [2]; [10]) was 0.06 nM.
With `CCO[C@H](C[C@H](C(C)C)N(C)C(=O)[C@@H](NC(=O)[C@H]1CCCCN1C)C1CCCC1)c1nc(C(=O)N[C@@H](Cc2ccccc2)C[C@H](C)C(=O)O)cs1` [Compound 204, (2S,4R)-4-(2-((1R,3R)-3-((S)-2-cyclopentyl-N-methyl-2-((R)-1-methylpiperidine-2-carboxamido)acetamido)-1-ethoxy-4-methylpentyl)thiazole-4-carboxamido)-2-methyl-5-phenylpentanoic acid] the IC50 (HL60, AML; [11]) was 1 nM, the IC50 (HL60/RV, MDR + AML; [11]) was 40 nM and the IC50 (L540cy, HL [2]; [12]) was 0.4 nM. The IC50 (HepG2, HCC) was 2 nM, the IC50 (Ramos, NHL) was 0.2 nM and the IC50 (U266 MM) was 0.1 nM. For the same compound, the “potency / cytotoxicity of TubOEt analogues, in words” value [5] was “potent”.
Work on `CCO[C@H](C[C@H](C(C)C)N(C)C(=O)[C@@H](NC(=O)[C@H]1CCCCN1C)C1CCCCC1)c1nc(C(=O)N[C@@H](Cc2ccccc2)C[C@H](C)C(=O)O)cs1` [Compound 205, (2S,4R)-4-(2-((1R,3R)-3-((S)-2-cyclohexyl-N-methyl-2-((R)-1-methylpiperidine-2-carboxamido)acetamido)-1-ethoxy-4-methylpentyl)thiazole-4-carboxamido)-2-methyl-5-phenylpentanoic acid] yielded an IC50 (HL60, AML; [11]) of 2 nM, an IC50 (HL60/RV, MDR + AML; [11]) of 177 nM and an IC50 (L540cy, HL [2]; [12]) of 1 nM. It also gave an IC50 (HepG2, HCC) of 7 nM, an IC50 (Ramos, NHL) of 0.5 nM and an IC50 (U266 MM) of 0.5 nM. For the same compound, the “potency / cytotoxicity of TubOEt analogues, in words” value [5] was “potent”.
Work on `CCO[C@H](C[C@H](C(C)C)N(C)C(=O)[C@@H](NC(=O)[C@H]1CCCCN1C)C1CCOCC1)c1nc(C(=O)N[C@@H](Cc2ccccc2)C[C@H](C)C(=O)O)cs1` [Compound 210, (2S,4R)-4-(2-((1R,3R)-1-ethoxy-4-methyl-3-((S)—N-methyl-2-((R)-1-methylpiperidine-2-carboxamido)-2-(tetrahydro-2H-pyran-4-yl)acetamido)pentyl)thiazole-4-carboxamido)-2-methyl-5-phenylpentanoic acid] yielded an IC50 (HL60, AML; [11]) greater than 1000 nM, an IC50 (HL60/RV, MDR + AML; [11]) greater than 1000 nM and an IC50 (L540cy, HL [2]; [12]) greater than 1000 nM. It also gave an IC50 (HepG2, HCC) greater than 1000 nM, an IC50 (Ramos, NHL) greater than 1000 nM and an IC50 (U266 MM) greater than 1000 nM. For the same compound, the “potency / cytotoxicity of TubOEt analogues, in words” value [5] was “inactive against all cell lines tested”.
For `CCO[C@H](C[C@H](C(C)C)N(C)C(=O)[C@@H](NC(=O)[C@H]1CCCCN1C)[C@@H](C)OC(C)(C)C)c1nc(C(=O)N[C@@H](Cc2ccccc2)C[C@H](C)C(=O)O)cs1` [Compound 215, (2S,4R)-4-(2-((1R,3R)-3-((2S,3R)-3-(tert-butoxy)-N-methyl-2-((R)-1-methylpiperidine-2-carboxamido)butanamido)-1-ethoxy-4-methylpentyl)thiazole-4-carboxamido)-2-methyl-5-phenylpentanoic acid], the IC50 (HL60, AML; [11]) was 1 nM, the IC50 (HL60/RV, MDR + AML; [11]) was 33 nM and the IC50 (L540cy, HL [2]; [12]) was 0.2 nM. For the same compound, the IC50 (HepG2, HCC) was 1 nM, the IC50 (Ramos, NHL) was 0.2 nM and the IC50 (U266 MM) was 0.1 nM. For the same compound, the “potency / cytotoxicity of TubOEt analogues, in words” value [5] was “significantly more potent”.
